The values that follow are results of earlier work, collected in patent US20070149578A1, “Combination Therapy” (Pfizer, Inc., priority 2000, published 2007).

Data set [1] has as its system calcium channel. The conditions noted are these: see International Patent Application Number PCT/EP94/02697.
For data set [2], the system named is smooth muscle cell migration. The conditions noted are these: see International Patent Application Number PCT/EP95/00847.

For the compound `CCOC(=O)C1=C(COCCN)NC(C)=C(C(=O)OC)[C@H]1c1ccccc1Cl` (single isomer, unassigned) [R(+) isomer], in data set [1], the “calcium channel blocking activity” value is recorded as “little or no calcium channel blocking activity”. The “inhibitor of smooth muscle cell migration” value in data set [2] was “potent inhibitor”.

For the compound `CCOC(=O)C1=C(COCCN)NC(C)=C(C(=O)OC)[C@@H]1c1ccccc1Cl` (single isomer, unassigned) [S(−) isomer], the “calcium channel blocking activity” value in data set [1] is recorded as “substantially confined to the S(−) isomer”.
